Article PMC10139140, “Synthesis of Novel 2-(Cyclopentylamino)thiazol-4(5H)-one Derivatives with Potential Anticancer, Antioxidant, and 11β-HSD Inhibitory Activities” (International Journal of Molecular Sciences, 2023)

Tests used:
[1] = system: BJ cells; test: MTS metabolic activity assay, BJ cells; assay type: cell-based; conditions: Homo sapiens, 72 h, read-out: Cell metabolic activity (MTS), % of untreated control
Summary of the method: (§1)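 Following 24 h attachment, the cells received compounds at several concentrations for 72 h at 37 °C, 5% CO2. MTS reagent then stood for 3 h before readings at 590 nm and 620 nm; results normalised to untreated cells as 100%.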

[2] = system: human breast carcinoma (MDA-MB-231); test: MTS metabolic activity assay, MDA-MB-231 cells; assay type: cell-based; conditions: 72 h; for viability at 10 µM / viability at 20 µM / viability at 50 µM / viability at 100 µM / viability at 200 µM / viability at 300 µM / viability at 500 µM: Homo sapiens, read-out: Cell metabolic activity (MTS), % of untreated control; for viability at 10 µM: MDA-MB-231, 10 µM; for viability at 20 µM: MDA-MB-231, 20 µM; for viability at 50 µM: MDA-MB-231, 50 µM; for viability at 100 µM: MDA-MB-231, 100 µM; for viability at 200 µM: MDA-MB-231, 200 µM; for viability at 300 µM: MDA-MB-231, 300 µM; for viability at 500 µM: MDA-MB-231, 500 µM; for cell viability, decreases to: MDA-MB-231, higher concentrations, range given for the most effective substances together
Summary of the method: as §1

[3] = target: T1, 11β-HSD1 (Homo sapiens, UniProt P28845); test: Inhibition of 11β-HSD1 (cortisone to cortisol, human liver microsomes, cortisol ELISA); assay type: biochemical
T1 construct: Human liver microsomes were used as a source of 11β-HSD1 enzyme; tissue XenoTech Lot No. 1410013; host or cells: pooled human liver microsomes, mixed gender
Summary of the method: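 Human liver microsomal conversion of cortisone to cortisol, incubated 2.5 h at 37 °C and stopped with 18β-glycyrrhetinic acid. Cortisol was quantified by ELISA against inhibitor-free controls.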

[4] = system: skin melanoma (SK-MEL-30); test: MTS metabolic activity assay, SK-MEL-30 cells; assay type: cell-based; conditions: 72 h; for viability at 10 µM / viability at 20 µM / viability at 50 µM / viability at 100 µM / viability at 200 µM / viability at 300 µM / viability at 500 µM: Homo sapiens, read-out: Cell metabolic activity (MTS), % of untreated control; for viability at 10 µM: SK-MEL-30, 10 µM; for viability at 20 µM: SK-MEL-30, 20 µM; for viability at 50 µM: SK-MEL-30, 50 µM; for viability at 100 µM: SK-MEL-30, 100 µM; for viability at 200 µM: SK-MEL-30, 200 µM; for viability at 300 µM: SK-MEL-30, 300 µM; for viability at 500 µM: SK-MEL-30, 500 µM
Summary of the method: as §1

[5] = system: human pancreatic carcinoma (PANC-1); test: MTS metabolic activity assay, PANC-1 cells; assay type: cell-based; conditions: for viability at 10 µM / viability at 20 µM / viability at 50 µM / viability at 100 µM / viability at 200 µM / viability at 300 µM / viability at 500 µM: Homo sapiens, 72 h, read-out: Cell metabolic activity (MTS), % of untreated control; for viability at 10 µM: PANC-1, 10 µM; for viability at 20 µM: PANC-1, 20 µM; for viability at 50 µM: PANC-1, 50 µM; for viability at 100 µM: PANC-1, 100 µM; for viability at 200 µM: PANC-1, 200 µM; for viability at 300 µM: PANC-1, 300 µM; for viability at 500 µM: PANC-1, 500 µM; for highest increase in proliferation (cell metabolic activity): PANC-1, 72 h, range given for the named substances together
Summary of the method: as §1

[6] = target: T2, 11β-HSD2 (Homo sapiens, UniProt P80365); test: Inhibition of 11β-HSD2 (cortisol to cortisone, human microsomes, cortisol ELISA); assay type: biochemical; conditions: 2.5 h, 37 °C
T2 construct: Human liver microsomes were used as a source of 11β-HSD2 enzyme; tissue XenoTech Lot No. 1710160; host or cells: human kidney microsomes, mixed gender (method text says human liver microsomes)
T2 sequence (P80365 1-405): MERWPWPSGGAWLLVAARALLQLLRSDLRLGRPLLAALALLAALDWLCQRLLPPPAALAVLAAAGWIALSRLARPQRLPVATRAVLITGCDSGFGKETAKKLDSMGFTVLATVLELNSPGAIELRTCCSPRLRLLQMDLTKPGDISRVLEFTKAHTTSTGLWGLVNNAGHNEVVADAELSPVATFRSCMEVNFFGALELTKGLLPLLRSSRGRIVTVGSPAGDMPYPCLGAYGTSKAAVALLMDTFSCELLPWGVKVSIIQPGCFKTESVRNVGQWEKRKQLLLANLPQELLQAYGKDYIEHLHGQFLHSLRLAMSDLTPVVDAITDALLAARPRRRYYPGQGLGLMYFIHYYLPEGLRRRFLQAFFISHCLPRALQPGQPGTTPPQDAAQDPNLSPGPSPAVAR
Method: The resulting solution with a final volume of 100 µL was incubated for 2.5 h at 37 °C. […] The level of unreacted cortisol was measured by a commercially available ELISA kit.

[7] = system: human colon carcinoma (Caco-2); test: MTS metabolic activity assay, Caco-2 cells; assay type: cell-based; conditions: 72 h; for cell viability, decreases to: Caco-2, higher concentrations, range given for the most effective substances together; for viability at 10 µM / viability at 20 µM / viability at 50 µM / viability at 100 µM / viability at 200 µM / viability at 300 µM / viability at 500 µM: Homo sapiens, read-out: Cell metabolic activity (MTS), % of untreated control; for viability at 10 µM: Caco-2, 10 µM; for viability at 20 µM: Caco-2, 20 µM; for viability at 50 µM: Caco-2, 50 µM; for viability at 100 µM: Caco-2, 100 µM; for viability at 200 µM: Caco-2, 200 µM; for viability at 300 µM: Caco-2, 300 µM; for viability at 500 µM: Caco-2, 500 µM
Summary of the method: as §1

[8] = system: glioma (U-118 MG); test: MTS metabolic activity assay, U-118 MG cells; assay type: cell-based; conditions: 72 h; for viability at 10 µM / viability at 20 µM / viability at 50 µM / viability at 100 µM / viability at 200 µM / viability at 300 µM / viability at 500 µM: Homo sapiens, U-118-MG, U118-MG, read-out: Cell metabolic activity (MTS), % of untreated control
Summary of the method: as §1

T1 sequence (P28845 whole entry): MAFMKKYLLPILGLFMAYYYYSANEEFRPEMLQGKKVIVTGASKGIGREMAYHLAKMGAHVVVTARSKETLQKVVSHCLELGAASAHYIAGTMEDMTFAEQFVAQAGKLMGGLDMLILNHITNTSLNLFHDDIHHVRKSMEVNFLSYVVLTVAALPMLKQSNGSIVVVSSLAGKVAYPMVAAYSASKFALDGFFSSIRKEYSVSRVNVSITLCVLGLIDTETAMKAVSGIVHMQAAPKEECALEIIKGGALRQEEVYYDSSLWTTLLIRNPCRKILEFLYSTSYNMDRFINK

Structure (SMILES): O=C1N=C(NC2CCCC2)SC1c1ccc(Br)cc1 (stereo not drawn) [Compound 3g, 2-(cyclopentylamino)-5-(4-bromophenyl)thiazol-4(5H)-one]
- viability at 10 µM [1]: 99.7%
- viability at 20 µM [1]: 97.8%
- viability at 50 µM [1]: 90.8%
- viability at 100 µM [1]: 88.1%
- viability at 200 µM [1]: 84.2%
- viability at 300 µM [1]: 57.3%
- viability at 500 µM [1]: 55.4%
- viability at 10 µM [2]: 92.9%
- viability at 20 µM [2]: 93.6%
- viability at 50 µM [2]: 84.6%
- viability at 100 µM [2]: 82%
- viability at 200 µM [2]: 61.4%
- viability at 300 µM [2]: 43.9%
- viability at 500 µM [2]: 38%
- cell viability, decreases to [2]: 20–65%
- IC50 [3]: 180 ± 30 nM
- inhibition at 10 µM ([3]; 10 µM, 2.5 h, 37 °C): 87 ± 2.17%
- viability at 10 µM [4]: 95.4%
- viability at 20 µM [4]: 97.5%
- viability at 50 µM [4]: 98.3%
- viability at 100 µM [4]: 93.1%
- viability at 200 µM [4]: 71.5%
- viability at 300 µM [4]: 29.7%
- viability at 500 µM [4]: 25.2%
- cell viability, decreases to ([4]; SK-MEL-30, higher concentrations, range given for the most effective substances together): 20–65%
- viability at 10 µM [5]: 116%
- viability at 20 µM [5]: 122%
- viability at 50 µM [5]: 145%
- viability at 100 µM [5]: 139%
- viability at 200 µM [5]: 94.1%
- viability at 300 µM [5]: 57.9%
- viability at 500 µM [5]: 57.2%
- highest increase in proliferation (cell metabolic activity) [5]: 115 to 144%
- inhibition at 10 µM [6]: 38.6 ± 1.39%
- cell viability, decreases to [7]: 20–65%
- viability at 10 µM [7]: 91.9%
- viability at 20 µM [7]: 88.8%
- viability at 50 µM [7]: 87.3%
- viability at 100 µM [7]: 80.7%
- viability at 200 µM [7]: 56.3%
- viability at 300 µM [7]: 30.1%
- viability at 500 µM [7]: 30.9%
- viability at 10 µM [8]: 114%
- viability at 20 µM [8]: 110%
- viability at 50 µM [8]: 105%
- viability at 100 µM [8]: 104%
- viability at 200 µM [8]: 87.3%
- viability at 300 µM [8]: 40.6%
- viability at 500 µM [8]: 32.3%

Structure (SMILES): O=C1N=C(NC2CCCC2)SC12CCCCC2 [Compound 3h, 2-(cyclopentylamino)-1-thia-3-azaspiro[4.5]dec-2-en-4-one]
- viability at 10 µM [1]: 108%
- viability at 20 µM [1]: 106%
- viability at 50 µM [1]: 111%
- viability at 100 µM [1]: 118%
- viability at 200 µM [1]: 122%
- viability at 300 µM [1]: 115%
- viability at 500 µM [1]: 79%
- viability at 10 µM [2]: 91.6%
- viability at 20 µM [2]: 92.7%
- viability at 50 µM [2]: 92.1%
- viability at 100 µM [2]: 93.5%
- viability at 200 µM [2]: 77.1%
- viability at 300 µM [2]: 64.6%
- viability at 500 µM [2]: 45.6%
- cell viability, decreases to [2]: 20–65%
- IC50 [3]: 70 ± 5 nM
- % of 11β-HSD1 Inhibition 10 μM ([3]; 10 µM, 2.5 h, 37 °C): 90.49 ± 1.31%
- inhibition at 10 µM ([3]; 10 µM, 2.5 h, 37 °C): 90%
- viability at 10 µM [4]: 96.1%
- viability at 20 µM [4]: 100%
- viability at 50 µM [4]: 102%
- viability at 100 µM [4]: 105%
- viability at 200 µM [4]: 109%
- viability at 300 µM [4]: 106%
- viability at 500 µM [4]: 80.8%
- viability at 10 µM [5]: 102%
- viability at 20 µM [5]: 96%
- viability at 50 µM [5]: 105%
- viability at 100 µM [5]: 109%
- viability at 200 µM [5]: 117%
- viability at 300 µM [5]: 127%
- viability at 500 µM [5]: 98.4%
- highest increase in proliferation (cell metabolic activity) [5]: 115 to 144%
- inhibition at 10 µM [6]: < 43%
- cell viability, decreases to [7]: 20–65%
- viability at 10 µM [7]: 96.3%
- viability at 20 µM [7]: 94.2%
- viability at 50 µM [7]: 99.9%
- viability at 100 µM [7]: 96.2%
- viability at 200 µM [7]: 95.6%
- viability at 300 µM [7]: 82.6%
- viability at 500 µM [7]: 65.5%
- viability at 10 µM [8]: 111%
- viability at 20 µM [8]: 111%
- viability at 50 µM [8]: 116%
- viability at 100 µM [8]: 116%
- viability at 200 µM [8]: 121%
- viability at 300 µM [8]: 121%
- viability at 500 µM [8]: 99.9%
- highest increase in proliferation (cell metabolic activity) ([8]; U-118 MG, range given for the named substances together): 115 to 144%
